Experimental data: ChEMBL document CHEMBL3044826, “Design, synthesis and biological evaluation of some novel substituted 2-mercapto-3-phenethylquinazolines as antitumor agents” (2013)

Assays:
Type in all cases: functional
Malme-3M = assay: Cytotoxicity against Homo sapiens (human) MALME-3M cells assessed as growth inhibition at 10 uM after 48 hr by coulter counter analysis; conditions: read-out: GI
OVCAR-5 = assay: Cytotoxicity against Homo sapiens (human) OVCAR5 cells assessed as growth inhibition at 10 uM after 48 hr by coulter counter analysis; conditions: OVCAR-5, 48 h, read-out: GI
HOP-62 = assay: Cytotoxicity against Homo sapiens (human) HOP62 cells assessed as growth inhibition at 10 uM after 48 hr by coulter counter analysis; conditions: HOP-62, 48 h, read-out: GI
RXF 393 = assay: Cytotoxicity against Homo sapiens (human) RXF393 cells assessed as growth inhibition at 10 uM after 48 hr by coulter counter analysis; conditions: RXF 393, 48 h, read-out: GI
SK-OV-3 = assay: Cytotoxicity against Homo sapiens (human) SKOV3 cells assessed as growth inhibition at 10 uM after 48 hr by coulter counter analysis; conditions: SK-OV-3, 48 h, read-out: GI
SK-MEL-28 = assay: Cytotoxicity against Homo sapiens (human) SK-MEL-28 cells assessed as growth inhibition at 10 uM after 48 hr by coulter counter analysis; conditions: SK-MEL-28, 48 h, read-out: GI
TK-10 = assay: Cytotoxicity against Homo sapiens (human) TK10 cells assessed as growth inhibition at 10 uM after 48 hr by coulter counter analysis; conditions: TK-10, 48 h, read-out: GI
SF-539 = assay: Cytotoxicity against Homo sapiens (human) SF539 cells assessed as growth inhibition at 10 uM after 48 hr by coulter counter analysis; conditions: SF-539, 48 h, read-out: GI
MDA-MB-231 = assay: Cytotoxicity against Homo sapiens (human) MDA-MB-231 cells assessed as growth inhibition at 10 uM after 48 hr by coulter counter analysis; conditions: MDA-MB-231, 48 h, read-out: GI
SNB-19 = assay: Cytotoxicity against Homo sapiens (human) SNB19 cells assessed as growth inhibition at 10 uM after 48 hr by coulter counter analysis; conditions: SNB-19, 48 h, read-out: GI
ACHN = assay: Cytotoxicity against Homo sapiens (human) ACHN cells assessed as growth inhibition at 10 uM after 48 hr by coulter counter analysis; conditions: read-out: GI
SN12C = assay: Cytotoxicity against Homo sapiens (human) SN12C cells assessed as growth inhibition at 10 uM after 48 hr by coulter counter analysis; conditions: read-out: GI
EKVX = assay: Cytotoxicity against Homo sapiens (human) EKVX cells assessed as growth inhibition at 10 uM after 48 hr by coulter counter analysis; conditions: read-out: GI
PC-3 = assay: Cytotoxicity against Homo sapiens (human) PC3 cells assessed as growth inhibition at 10 uM after 48 hr by coulter counter analysis; conditions: PC-3, 48 h, read-out: GI
MCF7 = assay: Cytotoxicity against Homo sapiens (human) MCF7 cells assessed as growth inhibition at 10 uM after 48 hr by coulter counter analysis; conditions: MCF7, 48 h, read-out: GI
SF-268 = assay: Cytotoxicity against Homo sapiens (human) SF268 cells assessed as growth inhibition at 10 uM after 48 hr by coulter counter analysis; conditions: SF-268, 48 h, read-out: GI
HCT-116 = assay: Cytotoxicity against Homo sapiens (human) HCT116 cells assessed as growth inhibition at 10 uM after 48 hr by coulter counter analysis; conditions: HCT-116, 48 h, read-out: GI
HT-29 = assay: Cytotoxicity against Homo sapiens (human) HT-29 cells assessed as growth inhibition at 10 uM after 48 hr by coulter counter analysis; conditions: HT-29, 48 h, read-out: GI
KM12 = assay: Cytotoxicity against Homo sapiens (human) KM12 cells assessed as growth inhibition at 10 uM after 48 hr by coulter counter analysis; conditions: KM12, 48 h, read-out: GI
BT-549 = assay: Cytotoxicity against Homo sapiens (human) BT549 cells assessed as growth inhibition at 10 uM after 48 hr by coulter counter analysis; conditions: BT-549, 48 h, read-out: GI
CAKI-1 = assay: Cytotoxicity against Homo sapiens (human) Caki1 cells assessed as growth inhibition at 10 uM after 48 hr by coulter counter analysis; conditions: CAKI-1, 48 h, read-out: GI
OVCAR-4 = assay: Cytotoxicity against Homo sapiens (human) OVCAR4 cells assessed as growth inhibition at 10 uM after 48 hr by coulter counter analysis; conditions: OVCAR-4, 48 h, read-out: GI
MDA-MB-468 = assay: Cytotoxicity against Homo sapiens (human) MDA-MB-468 cells assessed as growth inhibition at 10 uM after 48 hr by coulter counter analysis; conditions: MDA-MB-468, 48 h, read-out: GI
SNB-75 = assay: Cytotoxicity against Homo sapiens (human) SNB75 cells assessed as growth inhibition at 10 uM after 48 hr by coulter counter analysis; conditions: SNB-75, 48 h, read-out: GI
HCT-15 = assay: Cytotoxicity against Homo sapiens (human) HCT15 cells assessed as growth inhibition at 10 uM after 48 hr by coulter counter analysis; conditions: HCT-15, 48 h, read-out: GI
OVCAR-8 = assay: Cytotoxicity against Homo sapiens (human) OVCAR8 cells assessed as growth inhibition at 10 uM after 48 hr by coulter counter analysis; conditions: OVCAR-8, 48 h, read-out: GI
M14 = assay: Cytotoxicity against Homo sapiens (human) M14 cells assessed as growth inhibition at 10 uM after 48 hr by coulter counter analysis; conditions: M14, 48 h, read-out: GI
LOX IMVI = assay: Cytotoxicity against Homo sapiens (human) LOXIMVI cells assessed as growth inhibition at 10 uM after 48 hr by coulter counter analysis; conditions: read-out: GI
NCI-H23 = assay: Cytotoxicity against Homo sapiens (human) NCI-H23 cells assessed as growth inhibition at 10 uM after 48 hr by coulter counter analysis; conditions: NCI-H23, 48 h, read-out: GI
OVCAR-3 = assay: Cytotoxicity against Homo sapiens (human) OVCAR3 cells assessed as growth inhibition at 10 uM after 48 hr by coulter counter analysis; conditions: OVCAR-3, 48 h, read-out: GI
MDA-MB-435 = assay: Cytotoxicity against Homo sapiens (human) MDA-MB-435 cells assessed as growth inhibition at 10 uM after 48 hr by coulter counter analysis; conditions: MDA-MB-435, 48 h, read-out: GI
SW-620 = assay: Cytotoxicity against Homo sapiens (human) SW620 cells assessed as growth inhibition at 10 uM after 48 hr by coulter counter analysis; conditions: SW-620, 48 h, read-out: GI
A549 = assay: Cytotoxicity against Homo sapiens (human) A549 cells assessed as growth inhibition at 10 uM after 48 hr by coulter counter analysis; conditions: A549, 48 h, read-out: GI
DU-145 = assay: Cytotoxicity against Homo sapiens (human) DU145 cells assessed as growth inhibition at 10 uM after 48 hr by coulter counter analysis; conditions: DU-145, 48 h, read-out: GI

SMILES	inhibition of growth at 10 µM (Malme-3M) [%]	inhibition of growth at 10 µM (OVCAR-5) [%]	inhibition of growth at 10 µM (HOP-62) [%]	inhibition of growth at 10 µM (RXF 393) [%]	inhibition of growth at 10 µM (SK-OV-3) [%]	inhibition of growth at 10 µM (SK-MEL-28) [%]	inhibition of growth at 10 µM (TK-10) [%]	inhibition of growth at 10 µM (SF-539) [%]	inhibition of growth at 10 µM (MDA-MB-231) [%]	inhibition of growth at 10 µM (SNB-19) [%]	inhibition of growth at 10 µM (ACHN) [%]	inhibition of growth at 10 µM (SN12C) [%]	inhibition of growth at 10 µM (EKVX) [%]	inhibition of growth at 10 µM (PC-3) [%]	inhibition of growth at 10 µM (MCF7) [%]	inhibition of growth at 10 µM (SF-268) [%]	inhibition of growth at 10 µM (HCT-116) [%]	inhibition of growth at 10 µM (HT-29) [%]	inhibition of growth at 10 µM (KM12) [%]	inhibition of growth at 10 µM (BT-549) [%]	other results
O=c1c2ccccc2nc(SCc2nnc(S)n2-c2ccccc2)n1CCc1ccccc1	< 10	< 10	24	< 10	< 10	< 10	< 10	< 10	20	< 10	< 10	< 10	31	30	28	< 10	< 10	< 10	< 10	< 10	inhibition of growth at 10 µM (CAKI-1): 17%; inhibition of growth at 10 µM (OVCAR-4): < 10%; inhibition of growth at 10 µM (MDA-MB-468): < 10%; inhibition of growth at 10 µM (SNB-75): < 10%; inhibition of growth at 10 µM (HCT-15): 25%; inhibition of growth at 10 µM (OVCAR-8): < 10%; inhibition of growth at 10 µM (M14): < 10%; inhibition of growth at 10 µM (LOX IMVI): < 10%; inhibition of growth at 10 µM (NCI-H23): < 10%; inhibition of growth at 10 µM (OVCAR-3): < 10%; inhibition of growth at 10 µM (MDA-MB-435): < 10%; inhibition of growth at 10 µM (SW-620): < 10%; inhibition of growth at 10 µM (A549): < 10%; inhibition of growth at 10 µM (DU-145): < 10%
O=c1c2ccccc2nc(SCCN2CCOCC2)n1CCc1ccccc1	< 10	< 10	< 10	< 10	< 10	< 10	< 10	< 10	< 10	< 10	< 10	< 10	< 10	14	< 10	< 10	< 10	< 10	< 10	< 10	inhibition of growth at 10 µM (CAKI-1): < 10%; inhibition of growth at 10 µM (OVCAR-4): < 10%; inhibition of growth at 10 µM (MDA-MB-468): < 10%; inhibition of growth at 10 µM (SNB-75): < 10%; inhibition of growth at 10 µM (HCT-15): < 10%; inhibition of growth at 10 µM (OVCAR-8): < 10%; inhibition of growth at 10 µM (M14): < 10%; inhibition of growth at 10 µM (LOX IMVI): < 10%; inhibition of growth at 10 µM (NCI-H23): < 10%; inhibition of growth at 10 µM (OVCAR-3): < 10%; inhibition of growth at 10 µM (MDA-MB-435): < 10%; inhibition of growth at 10 µM (SW-620): < 10%; inhibition of growth at 10 µM (A549): < 10%; inhibition of growth at 10 µM (DU-145): < 10%
CCn1c(S)nnc1CSc1nc2ccccc2c(=O)n1CCc1ccccc1	< 10	< 10	22	< 10	< 10	< 10	< 10	< 10	18	< 10	15	< 10	15	17	16	< 10	35	< 10	< 10	28	inhibition of growth at 10 µM (CAKI-1): < 10%; inhibition of growth at 10 µM (OVCAR-4): 15%; inhibition of growth at 10 µM (MDA-MB-468): 15%; inhibition of growth at 10 µM (SNB-75): < 10%; inhibition of growth at 10 µM (HCT-15): 12%; inhibition of growth at 10 µM (OVCAR-8): 11%; inhibition of growth at 10 µM (M14): 12%; inhibition of growth at 10 µM (LOX IMVI): 26%; inhibition of growth at 10 µM (NCI-H23): < 10%; inhibition of growth at 10 µM (OVCAR-3): < 10%; inhibition of growth at 10 µM (MDA-MB-435): 16%; inhibition of growth at 10 µM (SW-620): < 10%; inhibition of growth at 10 µM (A549): 16%; inhibition of growth at 10 µM (DU-145): < 10%
O=c1c2ccccc2nc(SCc2ccc([N+](=O)[O-])cc2)n1CCc1ccccc1	< 10	< 10	< 10	< 10	< 10	< 10	< 10	< 10	19	< 10	< 10	< 10	19	< 10	< 10	< 10	20	15	< 10	< 10	inhibition of growth at 10 µM (CAKI-1): 17%; inhibition of growth at 10 µM (OVCAR-4): < 10%; inhibition of growth at 10 µM (MDA-MB-468): 3%; inhibition of growth at 10 µM (SNB-75): < 10%; inhibition of growth at 10 µM (HCT-15): < 10%; inhibition of growth at 10 µM (OVCAR-8): < 10%; inhibition of growth at 10 µM (M14): < 10%; inhibition of growth at 10 µM (LOX IMVI): < 10%; inhibition of growth at 10 µM (NCI-H23): 15%; inhibition of growth at 10 µM (OVCAR-3): < 10%; inhibition of growth at 10 µM (MDA-MB-435): < 10%; inhibition of growth at 10 µM (SW-620): < 10%; inhibition of growth at 10 µM (A549): 16%; inhibition of growth at 10 µM (DU-145): 24%
